Results: BindingDB's records for doi:10.1021/jm990281p (Parke-Davis Pharmaceutical Research, 2000)
pIC50: −log10 of the molar value.

Tests used:
[1] = target: T1, Gag-Pol polyprotein [489-587] (Human immunodeficiency virus 1, UniProt P04585); assay: Protease Inhibition Assay
T1 construct: 489-587
Experimental: (§1) Sensitivity of HIV-1 protease activity to protease inhibitors was determined by a peptide substrate cleavage assay. Protease products were analyzed on a reverse-phase high-pressure liquid chromatograph.

[2] = target: T2, Dimer of Gag-Pol polyprotein [489-587] (Human immunodeficiency virus 1, UniProt P12497); assay: Protease Inhibition Assay
T2 construct: 489-587
Experimental: as §1

Which results are given for `Cc1cc(SC2C(=O)CC(CCc3ccc(O)cc3)(C(C)C)OC2=O)c(C(C)(C)C)cc1NS(C)(=O)=O` (stereo not given)?
pIC50 [1]: 8.40; pIC50 ([2]; pH 6.2, 37 °C): 8.40

How did the pIC50 [1] turn out when `Cc1cc(SC2C(=O)CC(CCc3ccc(O)cc3)(C(C)C)OC2=O)c(C(C)(C)C)cc1NS(=O)(=O)c1ccc(Cl)cc1` (stereo not given) was run?
Its pIC50 is 8.28.

And the pIC50 ([2]; pH 6.2, 37 °C)?
Its pIC50 is 8.28.

How did the pIC50 [1] turn out when `Cc1cc(SC2C(=O)CC(CCc3ccc(O)cc3)(C(C)C)OC2=O)c(C(C)(C)C)cc1NS(=O)(=O)c1cccnc1` (stereo not given) was run?
The pIC50 was 8.59.

What about the pIC50 ([2]; pH 6.2, 37 °C) of the same compound?
The pIC50 was 8.59.

How did the pIC50 [1] turn out when `Cc1cc(SC2C(=O)CC(C)(CCc3ccc(O)cc3)OC2=O)c(C(C)(C)C)cc1NS(C)(=O)=O` (stereo not given) was run?
Its pIC50 is 8.01.

And the pIC50 ([2]; pH 6.2, 37 °C)?
Its pIC50 is 8.01.

Which results are given for `Cc1cc(SC2C(=O)CC(C)(CCc3ccc(O)cc3)OC2=O)c(C(C)(C)C)cc1NS(=O)(=O)c1ccc(C#N)cc1` (stereo not given)?
pIC50 [1]: 8.68; pIC50 ([2]; pH 6.2, 37 °C): 8.68

What does the source list for `Cc1cc(SC2C(=O)CC(CCc3ccccc3)(C(C)C)OC2=O)c(C(C)(C)C)cc1N` (stereo not given)?
pIC50 [1]: 8.44; pIC50 ([2]; pH 6.2, 37 °C): 8.44

`Cc1cc(SC2C(=O)CC(CCc3ccccc3)(C(C)C)OC2=O)c(C(C)(C)C)cc1NS(=O)(=O)c1cccs1` (stereo not given) was tested. Which pIC50 [1] did it give?
The pIC50 was 8.44.

What about the pIC50 ([2]; pH 6.2, 37 °C) of the same compound?
Its pIC50 is 8.44.

`Cc1cc(SC2C(=O)CC(CCc3ccc(O)cc3)(C(C)C)OC2=O)c(C(C)(C)C)cc1OS(=O)(=O)c1ccc(F)cc1` (stereo not given) was tested. Which pIC50 [1] did it give?
The pIC50 was 8.02.

And the pIC50 [2]?
The pIC50 was 8.02.

How did the pIC50 [1] turn out when `Cc1cc(SC2C(=O)CC(CCc3ccc(O)cc3)(C(C)C)OC2=O)c(C(C)(C)C)cc1OS(=O)(=O)c1cccnc1` (stereo not given) was run?
Its pIC50 is 8.46.

What about the pIC50 [2] of the same compound?
The pIC50 was 8.46.

How did the pIC50 [1] turn out when `Cc1cc(SC2C(=O)CC(C)(CCc3ccc(O)cc3)OC2=O)c(C(C)(C)C)cc1OS(=O)(=O)c1ccccc1` (stereo not given) was run?
The pIC50 was 8.01.

And the pIC50 [2]?
The pIC50 was 8.01.

How did the pIC50 [1] turn out when `Cc1cc(SC2C(=O)CC(C)(CCc3ccc(O)cc3)OC2=O)c(C(C)(C)C)cc1OS(=O)(=O)c1ccc(F)cc1` (stereo not given) was run?
The pIC50 was 7.77.

What about the pIC50 [2] of the same compound?
Its pIC50 is 7.77.

`Cc1cc(SC2C(=O)CC(CCc3ccc(O)cc3)(C3CCCCC3)OC2=O)c(C(C)(C)C)cc1OS(=O)(=O)c1ccc(C#N)cc1` (stereo not given) was tested. Which pIC50 [1] did it give?
The pIC50 was 7.68.

What about the pIC50 [2] of the same compound?
Its pIC50 is 7.68.

How did the pIC50 [1] turn out when `Cc1cc(SC2C(=O)CC(CCc3ccc(O)cc3)(C3CCCCC3)OC2=O)c(C(C)(C)C)cc1OS(=O)(=O)c1ccc(F)cc1` (stereo not given) was run?
The pIC50 was 7.54.

What about the pIC50 [2] of the same compound?
The pIC50 was 7.54.

With `Cc1cc(SC2C(=O)CC(CCc3ccccc3)(C(C)C)OC2=O)c(C(C)(C)C)cc1OS(=O)(=O)c1cccnc1` (stereo not given) as the compound, how does the pIC50 [1] read?
Its pIC50 is 7.85.

What about the pIC50 [2] of the same compound?
Its pIC50 is 7.85.

`Cc1cc(SC2C(=O)CC(CCc3ccc(N)cc3)(C(C)C)OC2=O)c(C(C)(C)C)cc1OS(=O)(=O)c1ccc(C#N)cc1` (stereo not given) was tested. Which pIC50 [1] did it give?
The pIC50 was 8.89.

And the pIC50 [2]?
The pIC50 was 8.89.

With `CCNS(=O)(=O)Nc1cc(C(C)(C)C)c(SC2C(=O)CC(CCc3ccc(O)cc3)(C(C)C)OC2=O)cc1C` (stereo not given) as the compound, how does the pIC50 [1] read?
Its pIC50 is 8.77.

And the pIC50 [2]?
Its pIC50 is 8.77.

How did the pIC50 [1] turn out when `CCNS(=O)(=O)Nc1cc(C(C)(C)C)c(SC2C(=O)CC(CCc3ccccc3)(C(C)C)OC2=O)cc1C` (stereo not given) was run?
The pIC50 was 8.48.

And the pIC50 [2]?
Its pIC50 is 8.48.

`Cc1cc(SC2C(=O)CC(CCc3ccc(O)cc3)(C(C)C)OC2=O)c(C(C)(C)C)cc1NS(=O)(=O)N(C)C` (stereo not given) [3-({2-tert-butyl-4-[(dimethylsulfamoyl)amino]-5-methylphenyl}sulfanyl)-4-hydroxy-6-[2-(4-hydroxyphenyl)ethyl]-6-(propan-2-yl)-5,6-dihydro-2H-pyran-2-one] was tested. Which pIC50 [1] did it give?
The pIC50 was 8.44.

What about the pIC50 [2] of the same compound?
Its pIC50 is 8.44.

`Cc1cc(SC2C(=O)CC(C)(CCc3ccc(O)cc3)OC2=O)c(C(C)(C)C)cc1N` (stereo not given) [3-[(4-amino-2-tert-butyl-5-methylphenyl)sulfanyl]-4-hydroxy-6-[2-(4-hydroxyphenyl)ethyl]-6-methyl-5,6-dihydro-2H-pyran-2-one] was tested. Which pIC50 [1] did it give?
Its pIC50 is 7.89.

What about the pIC50 ([2]; pH 6.2, 37 °C) of the same compound?
Its pIC50 is 7.89.

With `Cc1cc(SC2C(=O)CC(CCc3ccc(O)cc3)(C(C)C)OC2=O)c(C(C)(C)C)cc1OS(=O)(=O)c1ccc(C#N)cc1` (stereo not given) [5-tert-butyl-4-({4-hydroxy-6-[2-(4-hydroxyphenyl)ethyl]-2-oxo-6-(propan-2-yl)-5,6-dihydro-2H-pyran-3-yl}sulfanyl)-2-methylphenyl 4-cyanobenzene-1-sulfonate] as the compound, how does the pIC50 [1] read?
Its pIC50 is 8.35.

And the pIC50 [2]?
Its pIC50 is 8.35.

With `Cc1cc(SC2C(=O)CC(CCc3ccc(O)cc3)(C(C)C)OC2=O)c(C(C)(C)C)cc1OS(=O)(=O)c1ccccc1` (stereo not given) [5-tert-butyl-4-({4-hydroxy-6-[2-(4-hydroxyphenyl)ethyl]-2-oxo-6-(propan-2-yl)-5,6-dihydro-2H-pyran-3-yl}sulfanyl)-2-methylphenyl benzenesulfonate] as the compound, how does the pIC50 [1] read?
The pIC50 was 7.98.

And the pIC50 [2]?
Its pIC50 is 7.98.

With `Cc1cc(SC2C(=O)CC(CCc3ccc(O)cc3)(C(C)C)OC2=O)c(C(C)(C)C)cc1OS(=O)(=O)c1ccccn1` (stereo not given) [5-tert-butyl-4-({4-hydroxy-6-[2-(4-hydroxyphenyl)ethyl]-2-oxo-6-(propan-2-yl)-5,6-dihydro-2H-pyran-3-yl}sulfanyl)-2-methylphenyl pyridine-2-sulfonate] as the compound, how does the pIC50 [1] read?
Its pIC50 is 8.30.

And the pIC50 [2]?
Its pIC50 is 8.30.

`Cc1cc(SC2C(=O)CC(CCc3ccc(O)cc3)(C(C)C)OC2=O)c(C(C)(C)C)cc1OS(=O)(=O)c1cccs1` (stereo not given) [5-tert-butyl-4-({4-hydroxy-6-[2-(4-hydroxyphenyl)ethyl]-2-oxo-6-(propan-2-yl)-5,6-dihydro-2H-pyran-3-yl}sulfanyl)-2-methylphenyl thiophene-2-sulfonate] was tested. Which pIC50 [1] did it give?
Its pIC50 is 7.66.

What about the pIC50 [2] of the same compound?
The pIC50 was 7.66.

How did the pIC50 [1] turn out when `Cc1cc(SC2C(=O)CC(CCc3ccc(O)cc3)(C3CCCCC3)OC2=O)c(C(C)(C)C)cc1OS(=O)(=O)c1ccccc1` (stereo not given) [5-tert-butyl-4-({6-cyclohexyl-4-hydroxy-6-[2-(4-hydroxyphenyl)ethyl]-2-oxo-5,6-dihydro-2H-pyran-3-yl}sulfanyl)-2-methylphenyl benzenesulfonate] was run?
The pIC50 was 6.88.

And the pIC50 [2]?
The pIC50 was 6.89.

How did the pIC50 [1] turn out when `Cc1cc(SC2C(=O)CC(CCc3ccccc3)(C(C)C)OC2=O)c(C(C)(C)C)cc1OS(=O)(=O)c1ccccn1` (stereo not given) [5-tert-butyl-4-{[4-hydroxy-2-oxo-6-(2-phenylethyl)-6-(propan-2-yl)-5,6-dihydro-2H-pyran-3-yl]sulfanyl}-2-methylphenyl pyridine-2-sulfonate] was run?
The pIC50 was 8.17.

And the pIC50 [2]?
Its pIC50 is 8.17.

How did the pIC50 [1] turn out when `Cc1cc(SC2C(=O)CC(CCc3ccccc3)(C(C)C)OC2=O)c(C(C)(C)C)cc1NS(=O)(=O)c1ccccn1` (stereo not given) [N-(5-tert-butyl-4-{[4-hydroxy-2-oxo-6-(2-phenylethyl)-6-(propan-2-yl)-5,6-dihydro-2H-pyran-3-yl]sulfanyl}-2-methylphenyl)pyridine-2-sulfonamide] was run?
Its pIC50 is 8.52.

And the pIC50 [2]?
The pIC50 was 8.52.

How did the pIC50 [1] turn out when `Cc1cc(SC2C(=O)CC(CCc3ccc(O)cc3)(C(C)C)OC2=O)c(C(C)(C)C)cc1NS(=O)(=O)c1ccc(C(F)(F)F)cc1` (stereo not given) [N-[5-tert-butyl-4-({4-hydroxy-6-[2-(4-hydroxyphenyl)ethyl]-2-oxo-6-(propan-2-yl)-5,6-dihydro-2H-pyran-3-yl}sulfanyl)-2-methylphenyl]-4-(trifluoromethyl)benzene-1-sulfonamide] was run?
Its pIC50 is 7.74.

What about the pIC50 ([2]; pH 6.2, 37 °C) of the same compound?
The pIC50 was 7.74.

Which results are given for `Cc1cc(SC2C(=O)CC(CCc3ccc(O)cc3)(C(C)C)OC2=O)c(C(C)(C)C)cc1NS(=O)(=O)c1ccc(F)cc1` (stereo not given) [N-[5-tert-butyl-4-({4-hydroxy-6-[2-(4-hydroxyphenyl)ethyl]-2-oxo-6-(propan-2-yl)-5,6-dihydro-2H-pyran-3-yl}sulfanyl)-2-methylphenyl]-4-fluorobenzene-1-sulfonamide]?
pIC50 [1]: 8.39; pIC50 ([2]; pH 6.2, 37 °C): 8.39

`Cc1cc(SC2C(=O)CC(CCc3ccc(O)cc3)(C(C)C)OC2=O)c(C(C)(C)C)cc1NS(=O)(=O)c1ccccn1` (stereo not given) [N-[5-tert-butyl-4-({4-hydroxy-6-[2-(4-hydroxyphenyl)ethyl]-2-oxo-6-(propan-2-yl)-5,6-dihydro-2H-pyran-3-yl}sulfanyl)-2-methylphenyl]pyridine-2-sulfonamide] was tested. Which pIC50 [1] did it give?
Its pIC50 is 8.59.

What about the pIC50 ([2]; pH 6.2, 37 °C) of the same compound?
The pIC50 was 8.59.

`Cc1cc(SC2C(=O)CC(CCc3ccc(O)cc3)(C(C)C)OC2=O)c(C(C)(C)C)cc1NS(=O)(=O)c1cccs1` (stereo not given) [N-[5-tert-butyl-4-({4-hydroxy-6-[2-(4-hydroxyphenyl)ethyl]-2-oxo-6-(propan-2-yl)-5,6-dihydro-2H-pyran-3-yl}sulfanyl)-2-methylphenyl]thiophene-2-sulfonamide] was tested. Which pIC50 [1] did it give?
Its pIC50 is 8.06.

What about the pIC50 ([2]; pH 6.2, 37 °C) of the same compound?
Its pIC50 is 8.06.

What does the source list for `Cc1cc(SC2C(=O)CC(C)(CCc3ccc(O)cc3)OC2=O)c(C(C)(C)C)cc1NS(=O)(=O)c1ccc(C(F)(F)F)cc1` (stereo not given) [N-[5-tert-butyl-4-({4-hydroxy-6-[2-(4-hydroxyphenyl)ethyl]-6-methyl-2-oxo-5,6-dihydro-2H-pyran-3-yl}sulfanyl)-2-methylphenyl]-4-(trifluoromethyl)benzene-1-sulfonamide]?
pIC50 [1]: 7.91; pIC50 ([2]; pH 6.2, 37 °C): 7.91

With `Cc1cc(SC2C(=O)CC(C)(CCc3ccc(O)cc3)OC2=O)c(C(C)(C)C)cc1NS(=O)(=O)c1ccc(Cl)cc1` (stereo not given) [N-[5-tert-butyl-4-({4-hydroxy-6-[2-(4-hydroxyphenyl)ethyl]-6-methyl-2-oxo-5,6-dihydro-2H-pyran-3-yl}sulfanyl)-2-methylphenyl]-4-chlorobenzene-1-sulfonamide] as the compound, how does the pIC50 [1] read?
Its pIC50 is 8.46.

What about the pIC50 ([2]; pH 6.2, 37 °C) of the same compound?
The pIC50 was 8.46.

How did the pIC50 [1] turn out when `Cc1cc(SC2C(=O)CC(C)(CCc3ccc(O)cc3)OC2=O)c(C(C)(C)C)cc1NS(=O)(=O)c1ccc(F)cc1` (stereo not given) [N-[5-tert-butyl-4-({4-hydroxy-6-[2-(4-hydroxyphenyl)ethyl]-6-methyl-2-oxo-5,6-dihydro-2H-pyran-3-yl}sulfanyl)-2-methylphenyl]-4-fluorobenzene-1-sulfonamide] was run?
Its pIC50 is 8.43.

What about the pIC50 ([2]; pH 6.2, 37 °C) of the same compound?
The pIC50 was 8.43.

What does the source list for `Cc1cc(SC2C(=O)CC(C)(CCc3ccc(O)cc3)OC2=O)c(C(C)(C)C)cc1NS(=O)(=O)c1ccccc1` (stereo not given) [N-[5-tert-butyl-4-({4-hydroxy-6-[2-(4-hydroxyphenyl)ethyl]-6-methyl-2-oxo-5,6-dihydro-2H-pyran-3-yl}sulfanyl)-2-methylphenyl]benzenesulfonamide]?
pIC50 [1]: 8.82; pIC50 ([2]; pH 6.2, 37 °C): 8.82

With `Cc1cc(SC2C(=O)CC(CCc3ccc(O)cc3)(C3CCCC3)OC2=O)c(C(C)(C)C)cc1NS(=O)(=O)c1ccccc1` (stereo not given) [N-[5-tert-butyl-4-({6-cyclopentyl-4-hydroxy-6-[2-(4-hydroxyphenyl)ethyl]-2-oxo-5,6-dihydro-2H-pyran-3-yl}sulfanyl)-2-methylphenyl]benzenesulfonamide] as the compound, how does the pIC50 [1] read?
The pIC50 was 8.07.

And the pIC50 ([2]; pH 6.2, 37 °C)?
Its pIC50 is 8.07.
